{"source": "paper PMC9515468", "about": "“Tetracycline-grafted mPEG-PLGA micelles for bone-targeting and osteoporotic improvement” (Frontiers in Pharmacology, 2022)", "key": {"[1]": {"system": "ovariectomized rats", "assay": "Osteoporotic study in ovariectomized rats (femur micro-CT, BMD)", "assay_type": "in vivo, SD rats", "settings": "0.5 mg/kg/2 days intravenous; for BMD (bone mineral density) / BV/TV / SMI (structure model index) / Tb.N / Tb.Sp / Tb.Th: femur of ovariectomized rats, n = 3; for increase of femur BMD compared to the OVX group: ovariectomized rats, treatment for 8 weeks", "procedure": "Female SD rats were adopted for the osteoporotic study. […] All SD rats were anesthetized and bilaterally ovariectomized except those in the SHAM group, which underwent a sham operation. […] All SD rats were sacrificed, and their left femurs were collected. Detection of BMD was performed with a dual energy X-ray absorptiometric machine ([…] Microtomograph, Bruker, Belgium) ([Zhang et al., 2020])."}, "[2]": {"assay": "Pharmacokinetic parameters in the plasma", "assay_type": "in vivo", "settings": "SD rats, 10 mg/kg, tail vein, n = 6", "procedure": "In-house in vitro analysis of AS was performed with a Shimadzu high performance liquid chromatography (HPLC) machine ([…], Shimadzu-Japan) equipped with an ultraviolet detector and a Purospher® RP18 column (5 μm, 4.6 × 250 mm, Merck KGaA-Germany). […] For in vivo detection, the internal standard (IS) was a baicalein (20 μg/ml) solution, wherein ethyl acetate was employed to extract AS and IS from plasma ([Zhen et al., 2020]). […] Sampling of blood from the retro-orbital veins of rats at preset time intervals was performed after they had received the aforementioned dosage forms. To obtain serum, we stored the sampled blood for 30 min at 37°C prior to centrifugation at 3,700 rpm for 10 min. The following procedure has been depicted in Section 2.7. Based on observed values, we computed Cmax as the maximum AS concentration in plasma and Tmax as the time to attain Cmax. […] Estimation of oral relative biological availability (RBA) was carried out as follows ([Zhu et al., 2021]): […]"}, "[3]": {"assay": "Hydroxyapatite-targeting ability (binding to bone mineral)", "settings": "80 mg hydroxyapatite, 37°C, within 4 h", "procedure": "The precipitates were dissolved with 10 ml of methanol prior to 5 min of sonication and 10 min of centrifugation at 12,000 rpm. Filtration of the supernatant was accomplished with a filtering membrane (0.22 μm). The concentration of AS in the supernatant was detected by HPLC. The adsorption ability of bone targets was calculated by the following equation ([Yuan et al., 2020]): A%=Ia/I0×100% (5) where A% represents the adsorption ability of bone targets. The Ia denotes the amount of AS absorbed by hydroxyapatite. The I0 denotes the weight of AS in initial bone targets."}, "[4]": {"assay": "AS release in vitro, dialysis bag method", "assay_type": "physicochemical", "settings": "in 48 h, PBS pH 7.4 with 0.5% Tween 80, 37 °C", "procedure": "The experiment was conducted with an oscillating machine (ZRS-8G model, Tianjin Univ. Radio Factory, China) at a speed of 100 rpm and 37 °C. Withdrawal of dissolution medium for analysis was accordingly performed, while the same volume of fresh medium was added at preset time periods. Measurement of AS concentration for the calculation of the cumulative release ratio with HPLC was carried out. The release curve was drawn with the abscissa as time and the cumulative release ratio as the ordinate ([Weng et al., 2019])."}}}
{"smiles": "CC(C)(O)[C@@H]1CC[C@](C)([C@H]2[C@@H](O)C[C@@]3(C)[C@@H]4C[C@H](O[C@@H]5O[C@H](CO)[C@@H](O)[C@H](O)[C@H]5O)[C@H]5C(C)(C)[C@@H](O[C@@H]6OC[C@@H](O)[C@H](O)[C@H]6O)CC[C@@]56C[C@@]46CC[C@]23C)O1", "note": "[AS, Astragaloside IV]", "values": [{"measurement": "effect on osteoporosis in ovariectomized rats vs OVX group", "setting": "[1]; p < 0.05", "result": "certain mitigative effect"}, {"measurement": "BMD (bone mineral density)", "setting": "[1]", "result": "0.064 ± 0.003"}, {"measurement": "BV/TV", "setting": "[1]", "result": "9.951 ± 0.100", "unit": "%"}, {"measurement": "SMI (structure model index)", "setting": "[1]", "result": "1.847 ± 0.032"}, {"measurement": "Tb.N", "setting": "[1]", "result": "1.441 ± 0.026"}, {"measurement": "Tb.Sp", "setting": "[1]", "result": "0.60 ± 0.018"}, {"measurement": "Tb.Th", "setting": "[1]", "result": "0.076 ± 0.002", "unit": "mm"}, {"measurement": "increase of femur BMD compared to the OVX group", "setting": "[1]", "result": 12.9, "unit": "%"}, {"measurement": "AUCt", "setting": "[2]", "result": 12912, "unit": "ng·h/mL"}, {"measurement": "Cmax", "setting": "[2]", "result": 14320, "unit": "ng/mL"}, {"measurement": "MRT", "setting": "[2]", "result": 82.14, "unit": "min"}, {"measurement": "Tmax", "setting": "[2]", "result": 4.98, "unit": "min"}, {"measurement": "t1/2", "setting": "[2]", "result": 33.5, "unit": "min"}, {"measurement": "adsorption ability to hydroxyapatite (A%)", "setting": "[3]; containing 1 mg AS", "result": 26.98, "unit": "%"}, {"measurement": "adsorption ability to hydroxyapatite (A%)", "setting": "[3]; containing 5 mg AS", "result": 28.83, "unit": "%"}, {"measurement": "cumulative release rate", "setting": "[4]", "result": 79.05, "unit": "%"}]}
{"smiles": "C[C@]12CC[C@@H]3c4ccc(O)cc4CC[C@H]3[C@@H]1CC[C@@H]2O", "note": "[ES, estradiol]", "values": [{"measurement": "BMD (bone mineral density)", "setting": "[1]", "result": "0.093 ± 0.003"}, {"measurement": "BV/TV", "setting": "[1]", "result": "12.91 ± 0.703", "unit": "%"}, {"measurement": "SMI (structure model index)", "setting": "[1]", "result": "1.793 ± 0.052"}, {"measurement": "Tb.N", "setting": "[1]", "result": "1.943 ± 0.063"}, {"measurement": "Tb.Sp", "setting": "[1]", "result": "0.48 ± 0.016"}, {"measurement": "Tb.Th", "setting": "[1]", "result": "0.074 ± 0.002", "unit": "mm"}, {"measurement": "increase of femur BMD compared to the OVX group", "setting": "[1]", "result": 62.5, "unit": "%"}]}
